According to patent publication US20200163984A1, “USE OF ISOVALERYL SPIRAMYCIN I, II AND/OR III IN MANUFACTURING MEDICAMENT FOR TREATING AND/OR PREVENTING TUMOR, AND MEDICAMENT” (SHENYANG FUYANG PHARMACEUTICAL TECHNOLOGY CO., LTD., priority 2017, published 2020):
≈ marks a conversion by molar mass, not a printed value. Where two headings read alike, the source gives them in different places.

Experiments:
[1] = system: transplanted tumor of HL60 cells; experiment: HL-60 transplanted tumor in nude mice; settings: for Tumor Volume (mm3) (d30): d 30
Experimental: HL-60 cells in a logarithmic growth phase were taken and subjected to a trypan blue exclusion experiment showing that the cell viability was more than 95%, then the cells were subjected to trypsinization, centrifugation, and supernatant removal. Then cell concentration was adjusted to 1×10^7/ml with matrigel, then each nude mouse was inoculated subcutaneously with 0.2 ml of cells at its right armpit and recorded as the first day of inoculation. When the tumor grows to be greater than or equal to 100 mm^3, the mice were randomly divided into 11 groups with 6 mice in each group: isovaleryl spiramycin I groups with doses of 25, 50 and 100 mg/kg, isovaleryl spiramycin II groups with doses of 25, 50 and 100 mg/kg, and isovaleryl spiramycin III groups with doses of 25, 50 and 100 mg/kg. Each group was continuously administered intragastrically for 30 days with a dose of 20 ml/kg. The mice were sacrificed the next day after drug withdrawal and the indicators were tested. The long diameter and short diameter of the tumor, and the weight of each mouse were recorded every 3 days from drug administration to nude mouse sacrifice.
(§1) The body weight of the nude mice and the long diameter (a) and short diameter (b) of the transplanted tumor were measured every 3 days, and the tumor volume (v), relative tumor volume (RTV) and relative tumor proliferation rate (T/C) are calculated respectively according to the following formulas, wherein V=a×b^2/2; RTV=V/V0 (V0 is the tumor volume before administration, V is the tumor volume before sacrifice), and T/C (%)=treatment group RTV/model control group RTV×100%.
(§2) Each mouse was weighed and sacrificed. After the tumor was completely stripped off from the body of the mouse, the non-tumor tissues such as blood stains and fat were removed to weigh the tumor and calculate the tumor growth inhibition rate. The average tumor weight of each group of mice is used as an indicator of efficacy. Tumor growth inhibition rate (%)=(1−the average tumor weight of the treatment group/the average tumor weight of the model group)×100%.

[2] = system: human thyroid cancer cell TPC-1; settings: TPC-1, MTT
Source text: (§3) The purpose of the assay is to evaluate the in vitro cell proliferation inhibition or cytotoxic activity of a tested sample.
(§4) Human breast cancer cells MCF-7 and MDA-MB-231, human hepatoma cells HepG2, human non-small cell lung cancer cells A549, human large cell lung cancer cells H460 and H1299, human renal clear cell adenocarcinoma cell 786-0, human renal cell adenocarcinoma cell 769-P, human glioma cell U251, human glioblastoma cell A172, human tissue lymphoma cell U937, human cervical cancer cell HeLa, human prostate cancer cell PC3, human pancreatic cancer cell PANC-1, human esophageal cancer cell TE-1, human gastric adenocarcinoma cell SGC7901, human colon cancer cell HT-29, human promyelocytic leukemia cell HL-60, human thyroid cancer cell TPC-1, and human bladder cancer cell T-24.
(§5) The inhibition rate of the medicament on tumor cell growth is calculated according to the following formula:
(§6) Tumor cell growth inhibition rate (%)=[A492 (negative control)−A492 (dosing group)]/A492 (negative control)×100%
(§7) And the half-inhibitory concentration (IC50) of the sample is determined therefrom.

[3] = system: human bladder cancer cell T-24; settings: T-24, MTT
Source text: as §3, §4, §5, §6, §7

[4] = system: transplanted tumor of human glioblastoma cell A172; settings: for Tumor Volume (mm3) (d 1): d1
Experimental: Then cell concentration was adjusted to 1×10^7/ml with matrigel, then each nude mouse was inoculated subcutaneously with 0.2 ml of cells at its right armpit and recorded as the first day of inoculation. When the tumor grows to be greater than or equal to 100 mm^3, the mice were randomly divided into 11 groups with 6 mice in each group: a model group, a temozolomide group, […], […], […] Each group was continuously administered intragastrically for 30 days with a dose of 20 ml/kg. The mice were sacrificed the next day after drug withdrawal and the indicators were tested. The long diameter and short diameter of the tumor, and the body weight of each mouse were recorded every 3 days from drug administration to nude mouse sacrifice.
as §1, §2

[5] = HL-60, high dose (100 mg/kg in method) i.g. 30 days
[6] = HL-60, low dose (25 mg/kg in method) i.g. 30 days
[7] = HL-60, medium dose (50 mg/kg in method) i.g. 30 days
[8] = A172, high dose (100 mg/kg in method) i.g. 30 days
[9] = A172, low dose (25 mg/kg in method) i.g. 30 days
[10] = A172, medium dose (50 mg/kg in method) i.g. 30 days

SMILES: CO[C@@H]1[C@@H](O[C@@H]2O[C@H](C)[C@@H](O[C@H]3C[C@@](C)(O)[C@@H](OC(=O)CC(C)C)[C@H](C)O3)[C@H](N(C)C)[C@H]2O)[C@@H](CC=O)C[C@@H](C)[C@@H](O[C@H]2CC[C@H](N(C)C)[C@@H](C)O2)/C=C/C=C/C[C@@H](C)OC(=O)C[C@H]1O [Isovaleryl spiramycin I, isovaleryl spiramycin I]
- Relative Tumor Proliferation Rate (T/C) [1, 5]: 32.70%
- tumor growth inhibition rate [1, 5]: 64.19%
- Relative Tumor Proliferation Rate (T/C) [1, 6]: 84.96%
- tumor growth inhibition rate [1, 6]: 11.57%
- tumor volume and relative tumor volume compared with the model group ([1]; HL-60, low, medium and high doses, P<0.05): significantly lower
- Relative Tumor Proliferation Rate (T/C) [1, 7]: 59.54%
- tumor growth inhibition rate [1, 7]: 34.78%
- Inhibition Rate (%) ([1]; dose 25 mg/kg): 11.57%
- Relative Tumor Proliferation Rate (T/C) ([1]; dose 25 mg/kg): 84.96%
- Relative Tumor Volume (RTV) ([1]; dose 25 mg/kg): 9.56 ± 2.41
- Tumor Weight ([1]; dose 25 mg/kg): 2.00 ± 0.34 g
- Tumor Volume (mm3) (d 1) ([1]; dose 25 mg/kg): 182.56 ± 25.80 mm3
- Tumor Volume (mm3) (d30) ([1]; dose 25 mg/kg): 1702.01 ± 305.75 mm3
- Inhibition Rate (%) ([1]; dose 50 mg/kg): 34.78%
- Relative Tumor Proliferation Rate (T/C) ([1]; dose 50 mg/kg): 59.54%
- Relative Tumor Volume (RTV) ([1]; dose 50 mg/kg): 6.70 ± 2.58
- Tumor Weight ([1]; dose 50 mg/kg): 1.48 ± 0.38 g
- Tumor Volume (mm3) (d 1) ([1]; dose 50 mg/kg): 189.04 ± 24.48 mm3
- Tumor Volume (mm3) (d30) ([1]; dose 50 mg/kg): 1230.70 ± 332.94 mm3
- Inhibition Rate (%) ([1]; dose 100 mg/kg): 64.19%
- Relative Tumor Proliferation Rate (T/C) ([1]; dose 100 mg/kg): 32.70%
- Relative Tumor Volume (RTV) ([1]; dose 100 mg/kg): 3.68 ± 2.51
- Tumor Weight ([1]; dose 100 mg/kg): 0.81 ± 0.42 g
- Tumor Volume (mm3) (d 1) ([1]; dose 100 mg/kg): 183.82 ± 20.41 mm3
- Tumor Volume (mm3) (d30) ([1]; dose 100 mg/kg): 657.95 ± 411.53 mm3
- mouse weight compared with the model group ([1]; mouse, in vivo): no significant changes
- Body Weight (g) (d1) ([1]; mouse, in vivo, 25 mg/kg): 20.75 ± 1.20 g
- Body Weight (g) (d30) ([1]; mouse, in vivo, 25 mg/kg): 20.66 ± 1.08 g
- Body Weight (g) (d1) ([1]; mouse, in vivo, 50 mg/kg): 20.4 ± 1.60 g
- Body Weight (g) (d30) ([1]; mouse, in vivo, 50 mg/kg): 20.35 ± 1.20 g
- Body Weight (g) (d1) ([1]; mouse, in vivo, 100 mg/kg): 20.63 ± 1.33 g
- Body Weight (g) (d30) ([1]; mouse, in vivo, 100 mg/kg): 20.56 ± 1.77 g
- IC50 [2]: 19.97 ± 1.93 µg/mL (≈ 21.5 µM)
- IC50 [3]: 18.68 ± 0.58 µg/mL (≈ 20.1 µM)
- Relative Tumor Proliferation Rate (T/C) [4, 8]: 25.16%
- tumor growth inhibition rate [4, 8]: 68.79%
- Relative Tumor Proliferation Rate (T/C) [4, 9]: 74.49%
- tumor growth inhibition rate [4, 9]: 30.75%
- tumor volume and relative tumor volume compared with the model group ([4]; A172, low, medium and high doses, P<0.05): significantly lower
- Relative Tumor Proliferation Rate (T/C) [4, 10]: 43.43%
- tumor growth inhibition rate [4, 10]: 44.26%
- Inhibition Rate (%) ([4]; A172 nude mice, 12.5 mg/kg): 30.75%
- Relative Tumor Proliferation Rate (T/C) ([4]; A172 nude mice, 12.5 mg/kg): 74.49%
- Relative Tumor Volume (RTV) ([4]; A172 nude mice, 12.5 mg/kg): 12.69 ± 1.08
- Tumor Weight ([4]; A172 nude mice, 12.5 mg/kg): 0.96 ± 0.08 g
- Tumor Volume (mm3) (d 1) ([4]; A172 nude mice, 12.5 mg/kg): 120.36 ± 10.15 mm3
- Tumor Volume (mm3) (d30) ([4]; A172 nude mice, 12.5 mg/kg): 1519.32 ± 71.53 mm3
- Inhibition Rate (%) ([4]; A172 nude mice, 25 mg/kg): 44.26%
- Relative Tumor Proliferation Rate (T/C) ([4]; A172 nude mice, 25 mg/kg): 43.43%
- Relative Tumor Volume (RTV) ([4]; A172 nude mice, 25 mg/kg): 10.67 ± 1.08
- Tumor Weight ([4]; A172 nude mice, 25 mg/kg): 0.77 ± 0.09 g
- Tumor Volume (mm3) (d 1) ([4]; A172 nude mice, 25 mg/kg): 121.90 ± 10.10 mm3
- Tumor Volume (mm3) (d30) ([4]; A172 nude mice, 25 mg/kg): 889.01 ± 195.61 mm3
- Inhibition Rate (%) ([4]; A172 nude mice, 50 mg/kg): 68.79%
- Relative Tumor Proliferation Rate (T/C) ([4]; A172 nude mice, 50 mg/kg): 25.16%
- Relative Tumor Volume (RTV) ([4]; A172 nude mice, 50 mg/kg): 10.05 ± 0.71
- Tumor Weight ([4]; A172 nude mice, 50 mg/kg): 0.43 ± 0.07 g
- Tumor Volume (mm3) (d 1) ([4]; A172 nude mice, 50 mg/kg): 122.38 ± 6.44 mm3
- Tumor Volume (mm3) (d30) ([4]; A172 nude mice, 50 mg/kg): 513.12 ± 89.49 mm3
- mouse weight compared with the model group ([4]; mouse, in vivo): no significant changes
- Body Weight (g) (d1) ([4]; mouse, in vivo, 12.5 mg/kg): 21.06 ± 0.43 g
- Body Weight (g) (d30) ([4]; mouse, in vivo, 12.5 mg/kg): 20.34 ± 0.17 g
- Body Weight (g) (d1) ([4]; mouse, in vivo, 25 mg/kg): 20.98 ± 0.73 g
- Body Weight (g) (d30) ([4]; mouse, in vivo, 25 mg/kg): 20.93 ± 0.54 g
- Body Weight (g) (d1) ([4]; mouse, in vivo, 50 mg/kg): 21.00 ± 0.65 g
- Body Weight (g) (d30) ([4]; mouse, in vivo, 50 mg/kg): 20.88 ± 0.58 g
